Measured values as given in BigSolDB 2.1.

O=C(c1ccc(F)cc1)c1ccc(F)cc1
solubility (mole fraction)
Conditions	in acetone	in acetonitrile	in ethanol	in ethyl acetate	in isobutanol	in isopropanol	in methanol	in methyl acetate	in n-butanol	in n-propanol
293.15 K	0.0915	0.03	0.0084	0.101	0.0097	0.0079	0.0062	0.0956	0.011	0.0103
298.15 K	0.107	0.0386	0.0104	0.117	0.0125	0.0101	0.0076	0.112	0.014	0.0127
303.15 K	0.126	0.0491	0.0129	0.134	0.0158	0.0131	0.0093	0.131	0.0177	0.0159
308.15 K	0.147	0.0631	0.016	0.155	0.02	0.017	0.0114	0.152	0.0225	0.0197
313.15 K	0.172	0.08	0.0197	0.177	0.0255	0.0217	0.0138	0.177	0.0282	0.0246
318.15 K	0.199	0.101	0.0242	0.203	0.0322	0.0276	0.0168	0.205	0.0354	0.0305
323.15 K	0.231	0.126	0.0297	0.231	0.0407	0.0352	0.0204	0.238	0.0444	0.0378
328.15 K	0.266	0.158	0.0364	0.264	0.0511	0.0445	0.0245	0.274	0.0555	0.0467
333.15 K	0.308	0.197	0.0447	0.299	0.0643	0.056	0.0297	0.316	0.0691	0.0576
